Consider two compounds from PMC8693659 (RSC Advances, 2021).

pIC50: −log10 of the molar value.

In this test the target is SYK (Homo sapiens, UniProt P43405). In words: In vitro kinase inhibition assay. The format is biochemical. Particulars: for remained SYK activities: inhibitor at 5 μM.

Usually pIC50 stands for −log10 of the IC50, conventionally taken in molar units. A lower pIC50 goes with a high IC50.

For the compound `Cc1coc2c1C(=O)C(=O)c1c-2ccc2c(C)cccc12` [TanI, tanshinone I], the pIC50 was 5.76 and the “remained SYK activities” value stood at 37.0 ± 2.3%.

As to `Cc1coc2c1C(=O)C(=O)c1c-2ccc2c1CCCC2(C)C` [TanIIA, tanshinoneIIA], the pIC50 was 5.49 and the “remained SYK activities” value was 44.7 ± 3.3%.
